CCOc1ccc(C2NC(=O)NC=C2C(=O)c2cc(OC)c(OC)c(OC)c2)cc1 (stereo not given)
Conditions | solubility (mole fraction)
in PEG-400, 298.15 K | 0.00513
in PEG-400, 303.15 K | 0.00678
in PEG-400, 308.15 K | 0.0083
in PEG-400, 313.15 K | 0.0104
in PEG-400, 318.15 K | 0.0122

in water
Conditions | solubility (mole fraction)
298.15 K | 8.04e-06
303.15 K | 1.11e-05
308.15 K | 1.52e-05
313.15 K | 2.04e-05
318.15 K | 2.57e-05

From BigSolDB 2.1
